System: Escherichia coli
Test: Antibacterial activity against Escherichia coli clinical isolate ECJH19 assessed as diameter of zone of inhibition by disk diffusion assay
Format: functional

O=[N+]([O-])c1ccccc1/C=N/CCNc1ccnc2cc(Cl)ccc12
diameter of the inhibition zone (DIZ): 10 mm

Reference: ChEMBL document CHEMBL6078713, “Synthesis and mechanistic studies of 4-aminoquinoline-Isatin molecular hybrids and Schiff's bases as promising antimicrobial agents” (Eur J Med Chem, 2025)
